Source: patent US20150299721A1, “BIOMASS PRODUCTION INCREASING GENE AND TRANSGENIC PLANT USING SAME” (POSTECH ACADEMY-INDUSTRY FOUNDATION, priority 2012, published 2015)

Test system: BAT1 gene-overexpressing plant
Assay: Restoring of hypocotyl height of BAT1 gene-overexpressing plant by brassinosteroid in the medium
Type: in vivo, Arabidopsis thaliana
Settings: brassinosteroid added at 0.3 μM or 3 μM to 0.5x B5 medium, measured after 7 days (FIG. 5A)
Description: The wild type and the BAT1 gene-overexpressing plant were vertically grown in a greenhouse whose temperature was regulated at about 23° C. under a long-day condition having a 24-hour period of 16-hour light condition/8-hour dark condition in 0.5× B5 media. A hypocotyl of the vertical-grown plant was distinctively shown in the BAT1 gene-overexpressing plant. Various brassinosteroids were treated at various concentrations, and a height of the hypocotyl was measured after 7 days. As the brassinosteroid, brassinolide (BL), castasterone (CS), teasterone (TE), or typhasterol (TY) was added at a concentration of 0.3 μM or 3 μM to the medium.

Row | Compound | length (height) of hypocotyl
1 | CC(C)[C@H](C)[C@@H](O)[C@H](O)[C@@H](C)[C@H]1CC[C@H]2[C@@H]3CC(=O)[C@H]4C[C@H](O)[C@H](O)C[C@]4(C)[C@H]3CC[C@]12C [castasterone] | significantly increased
2 | CC(C)[C@H](C)[C@@H](O)[C@H](O)[C@@H](C)[C@H]1CC[C@H]2[C@@H]3CC(=O)[C@H]4C[C@H](O)CC[C@]4(C)[C@H]3CC[C@]12C [typhasterol] | significantly increased
3 | CC(C)[C@H](C)[C@@H](O)[C@H](O)[C@@H](C)[C@H]1CC[C@H]2[C@@H]3COC(=O)[C@H]4C[C@H](O)[C@H](O)C[C@]4(C)[C@H]3CC[C@]12C [brassinolide] | significantly increased
